Assay results taken from ChEMBL document CHEMBL1132846, “Synthesis and biological evaluation of highly potent analogues of epothilones B and D” (Bioorg Med Chem Lett, 2000).

Legend:
[1] = system: KB; assay: Concentration required to inhibit the growth of paclitaxel-resistant human epidermoid carcinoma cells KB-8511 by 50 percent (72 hr exposure); assay type: functional, cell-based
[2] = system: KB 3-1; assay: Concentration required to inhibit the growth of paclitaxel-sensitive human epidermoid carcinoma cells KB-31 by 50 percent (72 hr exposure); assay type: functional, cell-based; conditions: KB 3-1, 72 h
[3] = organism: Sus scrofa; assay: Induction of polymerization of porcine brain-derived microtubule protein by 2 uM epothilone B; assay type: functional
[4] = organism: Sus scrofa; assay: Concentrations required to induce 50 percent polymerization of porcine brain-derived micro-tubule protein; assay type: functional

Compound	IC50 [1]	IC50 [2]	Tubulin polymerization [3]	EC50 [4]
C/C1=C/C[C@@H](c2ccc3c(c2)nc(C)n3C)OC(=O)C[C@H](O)C(C)(C)C(=O)[C@H](C)[C@@H](O)[C@@H](C)CCC1	0.73 nM	0.21 nM	94%	
C/C1=C/C[C@@H](/C(C)=C/c2csc(C)n2)OC(=O)C[C@H](O)C(C)(C)C(=O)[C@H](C)[C@@H](O)[C@@H](C)CCC1 [EPOTHILONE D]	1.44 nM	2.7 nM	83%	880 nM
Cc1nc2cc([C@@H]3C[C@@H]4O[C@]4(C)CCC[C@H](C)[C@H](O)[C@@H](C)C(=O)C(C)(C)[C@@H](O)CC(=O)O3)ccc2n1C	0.38 nM	0.14 nM	99%	
C[C@H]1CCC[C@@]2(C)O[C@H]2C[C@@H](c2ccc3c(c2)ncn3C)OC(=O)C[C@H](O)C(C)(C)C(=O)[C@H](C)[C@H]1O	0.46 nM	0.13 nM	97%	
CC(=O)O[C@H]1C(=O)[C@@]2(C)[C@H]([C@H](OC(=O)c3ccccc3)[C@]3(O)C[C@H](OC(=O)[C@H](O)[C@@H](NC(=O)c4ccccc4)c4ccccc4)C(C)=C1C3(C)C)[C@]1(OC(C)=O)CO[C@@H]1C[C@@H]2O [PACLITAXEL]	626 nM	2.92 nM	49%	
C/C(=C\c1csc(C)n1)[C@@H]1C[C@@H]2O[C@]2(C)CCC[C@H](C)[C@H](O)[C@@H](C)C(=O)C(C)(C)[C@@H](O)CC(=O)O1 [PATUPILONE]	0.18 nM	0.19 nM	90%	670 nM
C/C(=C\c1ccccn1)[C@@H]1C[C@@H]2O[C@]2(C)CCC[C@H](C)[C@H](O)[C@@H](C)C(=O)C(C)(C)[C@@H](O)CC(=O)O1	0.3 nM	0.3 nM		
C/C1=C/C[C@@H](c2ccc3c(c2)ncn3C)OC(=O)C[C@H](O)C(C)(C)C(=O)[C@H](C)[C@@H](O)[C@@H](C)CCC1	0.91 nM	0.46 nM	86%	
C[C@H]1CCC[C@@]2(C)O[C@H]2C[C@@H](c2ccc3cccnc3c2)OC(=O)C[C@H](O)C(C)(C)C(=O)[C@H](C)[C@H]1O	0.1 nM	0.11 nM	78%	
C/C(=C\c1csc(C)n1)[C@@H]1C[C@@H]2O[C@@H]2CCC[C@H](C)[C@H](O)[C@@H](C)C(=O)C(C)(C)[C@@H](O)CC(=O)O1 [EPOTHILONE A]	1.91 nM	2.15 nM	69%	1120 nM
C/C1=C/C[C@@H](c2ccc3sc(C)nc3c2)OC(=O)C[C@H](O)C(C)(C)C(=O)[C@H](C)[C@@H](O)[C@@H](C)CCC1	0.23 nM	0.45 nM	76%	930 nM
Cc1nc2cc([C@@H]3C[C@@H]4O[C@]4(C)CCC[C@H](C)[C@H](O)[C@@H](C)C(=O)C(C)(C)[C@@H](O)CC(=O)O3)ccc2s1	0.09 nM	0.13 nM	83%	
C/C1=C/C[C@@H](c2ccc3cccnc3c2)OC(=O)C[C@H](O)C(C)(C)C(=O)[C@H](C)[C@@H](O)[C@@H](C)CCC1	0.38 nM	0.59 nM	90%	
